# According to patent US4544658A, “1-Cyclopropyl-6-fluoro-1,4-dih ydro-4-oxo-7-(alkyl-1-piperazinyl)quinoline-3-carboxylic acids, processes for their preparation and antibacterial agents containing them” (Bayer Aktiengesellschaft, priority 1982, dated 1985):
# Columns and labels:
# Test in all cases: MIC, agar dilution test; Denley multipoint inoculation procedure
# Assay type in all cases: cell-based
# Staphylococcus 1756 = settings: read-out: Minimum inhibitory concentration (MIC)
# Klebsiella 8085 = settings: read-out: Minimum inhibitory concentration (MIC)
# E. coli Neumann = settings: Escherichia coli, read-out: Minimum inhibitory concentration (MIC)
# Staphylococcus 133 = settings: read-out: Minimum inhibitory concentration (MIC)
# Staphylococcus Fk422 = settings: read-out: Minimum inhibitory concentration (MIC)
# Klebsiella 57 USA = settings: read-out: Minimum inhibitory concentration (MIC)
# Klebsiella 6179 = settings: read-out: Minimum inhibitory concentration (MIC)
# Providencia 12052 = settings: read-out: Minimum inhibitory concentration (MIC)
# Serratia 16040 = settings: read-out: Minimum inhibitory concentration (MIC)
SMILES,MIC (Staphylococcus 1756),MIC (Klebsiella 8085),MIC (E. coli Neumann),MIC (Staphylococcus 133),MIC (Staphylococcus Fk422),MIC (Klebsiella 57 USA),MIC (Klebsiella 6179),MIC (Providencia 12052),MIC (Serratia 16040)
"CC1CN(c2cc3c(cc2F)c(=O)c(C(=O)O)cn3C2CC2)CCN1 (stereo not drawn) [Example 1, 1-cyclopropyl-6-fluoro-1,4-dihydro-4-oxo-7-(3-methyl-1-piperazinyl)quinoline-3-carboxylicacid semihydrate]",0.25 µg/mL,≤ 0.015 µg/mL,≤ 0.015 µg/mL,0.25 µg/mL,0.25 µg/mL,0.03 µg/mL,0.125 µg/mL,16 µg/mL,4 µg/mL
"C[C@@H]1CN(c2cc3c(cc2F)c(=O)c(C(=O)O)cn3C2CC2)C[C@H](C)N1 [Example 3, 1-cyclopropyl-6-fluoro-1,4-dihydro-4-oxo-7-(3,5-dimethyl-1-piperazinyl)quinoline-3-carboxylic acid]",0.25 µg/mL,≤ 0.015 µg/mL,≤ 0.015 µg/mL,0.25 µg/mL,0.5 µg/mL,0.125 µg/mL,0.25 µg/mL,16 µg/mL,16 µg/mL
"CCN1CCN(c2cc3c(cc2F)c(=O)c(C(=O)O)cn3C2CC2)CC1C.I.O (stereo not drawn) [Example 4, 1-cyclopropyl-6-fluoro-1,4-dihydro-4-oxo-7-(4-ethyl-3-methyl-1-piperazinyl)quinoline-3-carboxylic acid hydriodide monohydrate]",0.5 µg/mL,≤ 0.015 µg/mL,0.03 µg/mL,0.25 µg/mL,0.5 µg/mL,0.25 µg/mL,0.25 µg/mL,32 µg/mL,16 µg/mL
"CCN1[C@H](C)CN(c2cc3c(cc2F)c(=O)c(C(=O)O)cn3C2CC2)C[C@@H]1C [Example 5, 1-cyclopropyl-6-fluoro-1,4-dihydro-4-oxo-7-(4-ethyl-3,5-dimethyl-1-piperazinyl)quinoline-3-carboxylic acid hydriodide]",0.5 µg/mL,0.03 µg/mL,0.03 µg/mL,0.5 µg/mL,0.5 µg/mL,0.5 µg/mL,0.5 µg/mL,32 µg/mL,32 µg/mL
